Laboratory results from patent US20070207175A1, “Biaromatic compound activators of PPARgamma receptors and cosmetic/pharmaceutical compositions comprised thereof” (GALDERMA RESEARCH & DEVELOPMENT, priority 2004, published 2007).

How the values were obtained:
Format in all cases: cell-based
[1] = target: T1, PPARδ (Homo sapiens, UniProt Q03181); experiment: Crossed-curve PPAR transactivation assay (PPARδ); settings: HeLN cells stably transfected with Gal-hPPARδ and luciferase reporter; Schild regression against reference agonist; n.a. means not active; read-out: PPARδ Kdapp
T1 sequence (Q03181 211-441 limits assumed): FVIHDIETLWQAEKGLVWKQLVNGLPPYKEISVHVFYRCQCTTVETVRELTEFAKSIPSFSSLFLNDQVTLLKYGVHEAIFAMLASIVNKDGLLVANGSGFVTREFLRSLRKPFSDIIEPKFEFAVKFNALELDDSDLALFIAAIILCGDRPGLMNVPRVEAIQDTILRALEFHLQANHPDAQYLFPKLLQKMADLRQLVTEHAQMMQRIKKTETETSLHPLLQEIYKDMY
Experimental: (§1) Activation of the PPAR receptors by an agonist (activator) in HeLN cells leads to the expression of a reporter gene, luciferase, which, in the presence of a substrate, generates light. The modulation of the PPAR receptors is measured by quantifying the luminescence produced after incubation of the cells in the presence of a reference agonist. The ligands will displace the agonist from its site. The measurement of the activity is performed by quantifying the light produced. This measurement makes it possible to determine the modulatory activity of the compounds according to the invention by the determination of the constant which is the affinity of the molecule for the PPAR receptor. Since this value can fluctuate depending on the basal activity and the expression of the receptor, it is referred to as apparent Kd (Kdapp in nM).
(§2) To determine this constant, “crossed curves” for the test product, against a reference agonist, are prepared using a 96-well plate: 10 concentrations of the test product plus a concentration 0 are arranged in a line, and 7 concentrations of the agonist plus a concentration 0 are arranged in a column. This is 88 measurement points for 1 product and 1 receptor. The remaining 8 wells are used for repeatability controls.
(§3) Measurements are also taken for total agonist controls with the same products.
(§4) The HeLN cell lines used are stable transfectants containing the plasmids ERE-βGlob-Luc-SV-Neo (reporter gene) and PPAR (α, δ, γ) Gal-hPPAR. These cells are seeded in 96-well plates at the rate of 10,000 cells per well in 100 μl of DMEM medium without phenol red and supplemented with 10% of defatted calf serum. The plates are then incubated for 16 hours at 37° C. and 7% CO2.
(§5) The various dilutions of the test products and of the reference ligand are added at the rate of 5 μl per well. The plates are subsequently incubated for 18 hours at 37° C. and 7% CO2. The culture medium is removed by turning over and 100 μl of a 1:1 PBS/luciferin mixture are added to each well. After 5 minutes, the plates are read using the luminescence reader.

[2] = target: T2, PPARγ (Homo sapiens, UniProt P37231); experiment: Crossed-curve PPAR transactivation assay (PPARγ); settings: HeLN cells stably transfected with Gal-hPPARγ and luciferase reporter; Schild regression against reference agonist; n.a. means not active; read-out: PPARγ Kdapp
T2 sequence (P37231 238-505 limits assumed): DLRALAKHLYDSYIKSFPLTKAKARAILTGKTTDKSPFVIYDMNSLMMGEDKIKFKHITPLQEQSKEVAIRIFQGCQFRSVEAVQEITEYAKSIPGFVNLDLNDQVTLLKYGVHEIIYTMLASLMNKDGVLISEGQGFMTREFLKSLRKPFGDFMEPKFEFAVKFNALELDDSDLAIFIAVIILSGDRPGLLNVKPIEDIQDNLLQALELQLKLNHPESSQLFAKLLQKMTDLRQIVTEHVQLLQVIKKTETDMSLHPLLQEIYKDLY
Experimental: as §1, §2, §3, §4, §5

[3] = target: T3, PPARα (Homo sapiens, UniProt Q07869); experiment: Crossed-curve PPAR transactivation assay (PPARα); settings: HeLN cells stably transfected with Gal-hPPARα and luciferase reporter; Schild regression against reference agonist; n.a. means not active; read-out: PPARα Kdapp
T3 sequence (Q07869 200-468 limits assumed): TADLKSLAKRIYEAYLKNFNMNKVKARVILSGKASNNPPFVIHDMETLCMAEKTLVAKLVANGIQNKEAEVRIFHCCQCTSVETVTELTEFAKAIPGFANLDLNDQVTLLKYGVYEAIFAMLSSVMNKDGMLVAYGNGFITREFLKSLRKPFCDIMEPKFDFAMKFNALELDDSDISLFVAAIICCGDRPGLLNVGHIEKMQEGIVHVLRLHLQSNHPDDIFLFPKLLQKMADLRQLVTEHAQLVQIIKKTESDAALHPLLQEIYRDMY
Experimental: as §1
To determine this constant, “crossed curves” for the test product, against a reference agonist, are prepared using a 96-well plate: 10 concentrations of the test product plus a concentration 0 are arranged in a line, and 7 concentrations of the agonist plus a concentration 0 are arranged in a column. This is 88 measurement points for 1 product and 1 receptor. […]
The various dilutions of the test products and of the reference ligand are added at the rate of 5 μl per well. […] After 5 minutes, the plates are read using the luminescence reader.

| SMILES | Kd [1] | Kd [2] | Kd [3] |
| --- | --- | --- | --- |
| CCCCOc1cc(CCC(=O)O)ccc1-c1cccc(CN(C)C(=O)CCCC)c1 [Example 10, 3-{2-butoxy-3′-[((methyl)(pentanoyl)amino)methyl]biphenyl-4-yl}propanoic acid] | 4000 nM | 4 nM | – |
| CCCCCCCC(=O)N(C)Cc1cccc(-c2ccc(CCC(=O)O)cc2)c1 [Example 2, 3-{3′-[((methyl)(octanoyl)amino)methyl]biphenyl-4-yl}propanoic acid] | – | 120 nM | – |
| CCCCCCCC(=O)N(C)Cc1cccc(-c2ccc(CCC(=O)O)c(F)c2)c1 [Example 4, 3-[3-fluoro-3′-[((methyl)(octanoyl)amino)methyl]biphenyl-4-yl)propanoic acid] | – | 250 nM | – |
| CCCCCC(=O)N(C)Cc1cccc(-c2ccc(CCC(=O)O)cc2OCCCC)c1 [Example 9, 3-{2-butoxy-3′-[((hexanoyl)(methyl)amino)methyl]biphenyl-4-yl}propanoic acid] | 4000 nM | 4 nM | 4000 nM |
| CCCCOc1cc(CCC(=O)O)ccc1-c1cccc(CN(C)C(=O)c2ccc(OCC)cc2)c1 [Example 12, 3-(2-butoxy-3′-{[(4-ethoxybenzoyl)(methyl)amino]methyl}biphenyl-4-yl)propanoic acid] | – | 0.25 nM | – |
| CCCCOc1cc(CCC(=O)O)ccc1-c1cccc(CN(C)C(=O)c2ccccc2)c1 [Example 14, 3-{3′-[((benzoyl)(methyl)amino)methyl]-2-butoxybiphenyl-4-yl}propanoic acid] | – | 8 nM | – |
| CCCCCCCC(=O)N(C)Cc1cccc(-c2ccc(/C=C/C(=O)O)cc2)c1 [Example 1, 3-(3′-[((methyl)(octanoyl)amino)methyl]biphenyl-4-yl)acrylic acid] | – | 500 nM | – |
| CCCCCCCC(=O)NCc1cccc(-c2ccc(CCC(=O)O)cc2)c1 [Example 6, 3-[3′-((octanoylamino)methyl)biphenyl-4-yl]propanoic acid] | – | 4000 nM | – |
| CCCCCCC(=O)N(C)Cc1cccc(-c2ccc(CCC(=O)O)cc2OCCCC)c1 [Example 11, 3-{2-butoxy-3′-[((heptanoyl)(methyl)amino)methyl]biphenyl-4-yl}propanoic acid] | 4000 nM | 1 nM | 500 nM |
| CCCCCCCC(=O)N(C)Cc1cccc(-c2ccc(/C=C/C(=O)O)c(F)c2)c1 [Example 3, 3-{3-fluoro-3′-[((methyl)(octanoyl)amino)methyl]biphenyl-4-yl}acrylic acid] | – | 60 nM | – |
| CCCCCCCC(=O)N(C)Cc1cccc(-c2ccc(CCC(=O)O)cc2OCCCC)c1 [Example 8, 3-{2-butoxy-3′-[((methyl)(octanoyl)amino)methyl]biphenyl-4-yl}propanoic acid] | – | 1 nM | – |
| CCCCOc1cc(CCC(=O)O)ccc1-c1cccc(CN(C)C(=O)c2cccc(OC)c2)c1 [Example 16, 3-(2-butoxy-3′-{[(3-methoxybenzoyl)(methyl)amino]methyl}biphenyl-4-yl)propanoic acid] | 4000 nM | 4 nM | – |
| CCCCCCCC(=O)N(C)Cc1cccc(-c2ccc(CCC(=O)O)c(O)c2)c1 [Example 7, 3-{3-hydroxy-3′-[((methyl)(octanoyl)amino)methyl]biphenyl-4-yl}propanoic acid] | – | 4000 nM | – |
| CCCCOc1cc(CCC(=O)O)ccc1-c1cccc(CN(C)C(=O)c2ccc(OC)cc2)c1 [Example 15, 3-(2-butoxy-3′-{[(4-methoxybenzoyl)(methyl)amino]methyl}biphenyl-4-yl)propanoic acid] | 4000 nM | 0.5 nM | – |
| CCCCOc1ccc(C(=O)N(C)Cc2cccc(-c3ccc(CCC(=O)O)cc3OCCCC)c2)cc1 [Example 13, 3-(2-butoxy-3′-{[(4-butoxybenzoyl)(methyl)amino]methyl}biphenyl-4-yl)propanoic acid] | – | 1 nM | – |
